Data on one compound can be found in patent US20070003987A1, “Screening method for substance binding to merozoite surface protein-1/42” (priority 2003, published 2007).

Structures are written as SMILES.

As a reminder, the EC50 is the concentration that produces a half-maximal response. A lower EC50 goes with greater potency. As a reminder, the Kd is a measure of binding affinity in units of concentration.

One assay deals with MSP142 (Plasmodium falciparum, UniProt Q8I0U8). Kind of assay: titration of fluorescent analogues against MSP142. The format is binding. On the procedure: Analogues 258, 261, 264 and 266 were titrated against (a) PBS buffer only, (b) 0.1 mg/ml bovine serum albumin in PBS or (c) 0.1 mg/ml MSP142 in PBS. Fluorescence observed was compared to naphthalenetrisulphate (non-specific reagent) and suramin.

In a further assay the test system is P. vivax MSP133. Kind of assay: binding of suramin by fluorimetry. On the procedure:
P. vivax MSP133 was expressed using the P. vivax MSP142 clone, above, as a template for PCR, followed by ligation of the product into vector pET30Xa/LIC. The sequence runs from Asp 1325 to Ser 1618 (Accession number A39401) following the N-terminal purification tag. The vector was used to transform BL21(DE3)pLysS cells. For expression, a culture of the transformed cells was induced at an OD600 of 0.6-0.8 at 37° C. with 1 mM IPTG for 3 h. The cells were harvested by centrifugation and the cell pellet lysed using the Bugbuster protein extraction reagent (Novagen). The cell lysate was cleared by centrifugation and the supernatant loaded directly onto a Ni-NTA column. […]
(§1) The intrinsic fluorescence of suramin was used to determine its capacity to bind to the various MSP1-derived proteins. The fluorescence was measured using a Perkin Elmer LS-3B or a Spex Fluoro Max 2 fluorimeter. Suramin was excited at a wavelength of 315 or 330 nm with 2.5 nm resolution, the emission spectra were measured at wavelengths ranging from 350-450 nm. Suramin and the MSP1 proteins were diluted in 20 mM NaH2PO4, 150 mM NaCl at pH 7.2 and analysed at 10 or 20° C. […] The Kd for the suramin-MSP1 binding was determined from three independent experiments.

The target in another assay is T1, P. falciparum MSP142 (Plasmodium falciparum, UniProt Q8I0U8).
T1 construct: was used to express a His6-tagged MSP142 protein; His6; made in house; host or cells: E. coli BL21 (DE3)
Kind of assay: binding of suramin to MSP1 by fluorimetry. On the procedure:
The pETATPf MSP142 plasmid (described by Angov et al, 2003 Mol. Biochem. Parasitol. 128, 195-204) was used to express a His6-tagged MSP142 protein (P. falciparum 3D7 clone, Accession Number Z35327). The DNA was used to transform E. coli BL21 (DE3) cells and then clones were selected on plates of agar containing ampicillin. Cells expressing the modified MSP142 were grown to mid log phase (OD6000.5-0.8) at 37° C., then after the incubation temperature had been reduced to 25° C., the protein expression was induced by addition of 0.1 mM IPTG. After 2 h of further growth the bacterial cells were harvested by centrifugation. The resulting cell paste was resuspended in lysis buffer (10 mM sodium phosphate, 50 mM NaCl, 10 mM imidazole, pH 6.2) and lysed by microfluidization. […]
The intrinsic fluorescence of suramin was used to determine its capacity to bind to the various MSP1-derived proteins. The fluorescence was measured using a Perkin Elmer LS-3B or a Spex Fluoro Max 2 fluorimeter. Suramin was excited at a wavelength of 315 or 330 nm with 2.5 nm resolution, the emission spectra were measured at wavelengths ranging from 350-450 nm. Suramin and the MSP1 proteins were diluted in 20 mM NaH2PO4, 150 mM NaCl at pH 7.2 and analysed at 10 or 20° C. […] The Kd for the suramin-MSP1 binding was determined from three independent experiments. […]

In another assay the test system is P. vivax MSP142. Kind of assay: binding of suramin by fluorimetry.
Text: The MSP142 protein from P. vivax was cloned into plasmid jmp28, a modified pET-28 vector that encodes an N-terminal peptide MHHHHHHIEGRWIL immediately upstream of the inserted sequence. P. vivax (Belem strain) DNA was used as a template for PCR based cloning. The sequence of the expressed protein (following the vector encoded N-terminal peptide) corresponded to residues Asp 1325 to Ser 1704, Accession number A39401.
The protein was expressed in BL21(DE3)pLysS cells by induction of a culture at an OD600 of 0.6-0.8 with IPTG at a final concentration of 1 mM. The cells were induced for 3 h at 37° C. and then harvested by centrifugation. […]
as §1

MSP142, sequence (Q8I0U8 1327-1699): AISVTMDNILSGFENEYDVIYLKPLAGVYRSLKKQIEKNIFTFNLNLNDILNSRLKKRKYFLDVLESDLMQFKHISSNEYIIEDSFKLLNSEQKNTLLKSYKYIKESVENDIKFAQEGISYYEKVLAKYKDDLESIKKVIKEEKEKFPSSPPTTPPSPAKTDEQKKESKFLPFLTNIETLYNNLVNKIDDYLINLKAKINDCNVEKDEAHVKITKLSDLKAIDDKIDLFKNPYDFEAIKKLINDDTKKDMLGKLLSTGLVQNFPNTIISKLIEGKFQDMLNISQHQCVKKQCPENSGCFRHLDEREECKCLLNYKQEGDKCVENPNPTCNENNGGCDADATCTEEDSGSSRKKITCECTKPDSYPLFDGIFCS
T1 sequence (Q8I0U8 1327-1699): as above

Turning to `Cc1ccc(C(=O)Nc2ccc(S(=O)(=O)O)c3cc(S(=O)(=O)O)cc(S(=O)(=O)O)c23)cc1NC(=O)c1cccc(NC(=O)Nc2cccc(C(=O)Nc3cc(C(=O)Nc4ccc(S(=O)(=O)O)c5cc(S(=O)(=O)O)cc(S(=O)(=O)O)c45)ccc3C)c2)c1` [suramin], on MSP142, the EC50 is approximately 2000 nM. For the same compound, the “fluorescence in the presence of MSP142” value at MSP142 (0.1 mg/ml MSP142 in PBS, 0.01-200 μM) is “became fluorescent in the presence of MSP142 specifically”. The “enhancement of intrinsic suramin fluorescence on binding” value with P. vivax MSP133 and in the assay on P. vivax MSP142 was “large binding-induced enhancements” throughout. Further, the Kd at P. falciparum MSP142 is 220 nM. Also, the “change of suramin emission intensity on binding to MSP142” value at P. falciparum MSP142 (excited at 315 nm) is listed as “pronounced increase in emission intensity”.
